Test results published in patent US12544400B2, “Treatment of myopic progression” (University of Utah Research Foundation, priority 2018, dated 2026).

Tests used:
rabbit corneas = assay: cornea radial strain / corneal biomechanics, rabbit corneas after eye drop treatment; assay type: in vivo; conditions: CuSO4 pentahydrate 0.0025 mg/ml once or three times per day; compared with laser cross-linking; FIG. 3
Method: (§1) Cornea radial strain measurements were performed on human cadaver corneas and on rabbit corneas. Human cadaver corneas (n=2 pairs) were cultured as previously mentioned in Example 1. The treated group was immersed in 0.0016 mg/ml CuSO4 for 2 weeks. The samples also contained a small portion of sclera at both ends. Mineral oil was applied on the surface of the sclera-cornea-sclera strip to minimize tissue dehydration. Rabbit corneas were divided into 4 groups. Two groups were treatment groups receiving either CuSO4 pentahydrate 0.0025 mg/ml three times per day or CuSO4 pentahydrate 0.0025 mg/ml once per day. Two groups served as control receiving only BSS.
(§2) The sample was coupled between a motor and a transducer that applied a controlled pressure from 5-30 mmHg and measured the resultant radial strain. The sample length between the two gripping jaws was approximately 10 mm. Sample geometric information, including width and thickness, was input into the Rheometrics System Analyzer (RSA) control panel. Sample thickness was measured by an ultrasound pachymeter (DGH 550 Pa-chette2; DGH Technology, Exton, PA).

rabbits = assay: safety of copper eye drops in vivo (ERG, slit-lamp, AS-OCT, histology); parameters: species or system rabbit; conditions: 0.0025 mg/ml TID or QD, 6 weeks
Method: Copper sulfate (CuSO4) pentahydrate solution was prepared at a concentration of 0.0025 mg/ml and administered three times a day (TID) or once a day (QD) to rabbits. An anterior segment evaluation was performed with slit-lamp biomicroscopy and Heidelberg Spectralis anterior segment optical coherence tomography (AS-OCT). Two rabbits (n=4 eyes) were sacrificed at each of day 1, week 1, week 4, and week 6 for copper levels in eye tissues and compared to control (no drops) rabbits. Aqueous humor, vitreous, retina, cornea, lens, and blood samples were analyzed for copper ions using inductively coupled plasma mass spectrometry (ICP-MS).
Rabbits (n=2) were sacrificed after 42 days by intravenous injection of 0.3 ml/kg euthanasia solution and the eyes were enucleated for histological evaluations and reading for signs of inflammation, tissue damage, scarring and fibrosis. The anterior section of the eyes were fixed in 10% formaldehyde-glutaraldehyde solution, dehydrated in a graded series of alcohol, embedded in paraffin, and sectioned with a microtome. The sections were stained with appropriate staining (hematoxylin and eosin and Masson Trichrome).

lysyl oxidase (LOX) = assay: peroxidase-coupled fluorometric lysyl oxidase activity assay on conditioned medium of cultured corneal stroma cells; assay type: cell-based; conditions: 0.0016 mg/mL CuSO4 in BSS vs BSS control, fibroblast cells from normal corneas and corneas having low corneal stiffness, FIGS. 1A-1B
Method: Cultured corneal stroma cells from normal corneas and corneas having low corneal stiffness (n=3 each) in 10% FBS DMEM were either exposed to BSS control or 0.0016 mg/mL CuSO4 in balanced salt solution (BSS) then filtered through a 0.25 μm filter. Conditioned culture medium underwent a peroxidase-coupled fluorometric activity assay for lysyl oxidase (LOX).
Tissues were collected under sterile techniques in an operative setting. Tissue samples were stored in a 10 cm tissue culture dish in an Optisol solution. Corneal tissue was suspended in 15% fetal bovine serum (FBS) DMEM/F12 with penicillin/streptomycin. Epithelium and Descemet's membrane were removed mechanically under a stereo microscope. The samples were further cut into small pieces by a surgical scissor, and added to 1 mg/mL collagenase; 10 mL per cornea was used. The sample pieces were plated to a 10 cm tissue culture dish and placed in a tissue culture incubator at 37° C. with 5% CO2. After 5 days, the cells were harvested and plated in 10% FBS DMEM without phenol red.
LOX enzyme activity in culture medium was measured using a peroxidase-coupled fluorometric assay using Amplex red. […] The fluorescence of oxidized Amplex red was recorded every 10 minutes using fluorescence plate reader. After subtracting the background fluorescence, the fluorescence intensity was plotted against the incubation time (FIGS. 1A and 1B).

human cadaver corneas = assay: cornea radial strain measurement, human cadaver corneas immersed in CuSO4
Method: as §1, §2

[1] = tested on: New Zealand white rabbits; assay: rabbit corneal topography (diopter measurements); assay type: in vivo; conditions: 0.0025 mg/ml once or three times per day or 0.025 mg/ml once per day, 5 weeks; controls no drops, BSS, artificial tears; FIG. 4
Method: Copper sulfate pentahydrate (CuSO4) at 0.0025 mg/ml was administered to New Zealand white rabbits at a dose of once per day and three times per day. Additionally, a high concentration sample of 0.025 mg/ml CuSO4 pentahydrate was administered to New Zealand with rabbits once per day during the treatment period. Three different controls were administered either no drops, BSS, or artificial tears. Each of the 6 groups included 6 test subjects each. Topography images were taken before treatment and weekly for 5 weeks. Diopter measurements were the mean K values and at 3 mm. These values were compared to diopter measurements in laser cross-linked corneas after 1 month and 1 year.

albino guinea pigs = tested on: albino guinea pigs
Method: Progressive myopia occurs more often in albino guinea pigs than in their wild type counterparts, even without imposing diffusers or lenses. Guinea pigs were subjected to a cycle of 12 hours of light/12 hours of dark. An eye drop including 0.0025 mg/ml CuSO4 pentahydrate in phosphate buffered ophthalmic solution was administered at approximately 2 weeks of age to the right eyes (OD) of albino guinea pigs (n=4). Left eyes (OS) received control drops (ophthalmic vehicle only). Eye drops (approximately 30 μL) were administered 3 times per day for approximately 6 weeks. Refractive error was measured by a pediatric ophthalmologist prior to treatment on day 1 and at subsequent timepoints according to the schedule depicted in FIGS. 7A-7B. […] FIGS. 7A-7B present average refractive error measurements for the test subjects in each eye with error bars and linear fit, respectively.

New Zealand white rabbit [2] = conditions: 0.0025 mg/ml 3 times per day for 6 weeks vs vehicle and control groups; FIG. 8
Method: New Zealand white rabbit right eyes were separated (n=6 per group) into treatment group (0.0025 mg/ml CuSO4 pentahydrate in phosphate buffered ophthalmic solution), vehicle group (phosphate buffered ophthalmic solution), and control group (no drops). Drops were administered 3 times per day for 6 weeks in treatment eyes. Animals were followed weekly for TOP measurements, topography and ocular response analyzer. At the end of the 6 weeks, rabbits were sacrificed and eye was immediately dissected within 30 minutes of sacrifice. Recovered corneas weight was recorded. Samples were reduced with NaBH4 at room temperature then washed with water twice, dried, and hydrolyzed with 6N HCl in vacuo for 18 hours at 110° C. Post hydrolysis, cross-link enrichment was carried out by using a cellulose mini-column method. LNL was measured by mass spectroscopy.

New Zealand white rabbit [3] = conditions: 0.0016 mg/ml 3x/day for 24 days
Method: New Zealand white rabbit right eyes (n=3) were treated with 0.0016 mg/ml CuSO4 3×/day for 24 days. Left eyes were treated with BSS (TID) for 24 days and served as controls. Corneal-OCT pictures were taken at baseline and at day 24.

[4] = 0.0016 mg/ml CuSO4 for 2 weeks vs untreated, FIG. 2

Compound: [Cu] [Cu, copper]
- corneal biomechanics (rabbit corneas): improved
- toxicity in dissected eye tissues (rabbits): no observed toxicity
- LOX enzyme activity (lysyl oxidase (LOX)): increased
- LOX enzyme activity (lysyl oxidase (LOX); listed as copper): dramatically increased
- corneal strength (human cadaver corneas; FIG. 2 legend): increased
- diopter measurements (mean K and at 3 mm), change vs control groups [1]: decreased

Compound: O.O.O.O.O.O=S(=O)([O-])[O-].[Cu+2] [CuSO4 pentahydrate, copper (II) sulfate pentahydrate]
- corneal biomechanics (rabbit corneas): comparable to that seen with laser cross-linking
- histopathological analysis of dissected eyes (albino guinea pigs; 0.0025 mg/ml 3 times per day, approximately 6 weeks, data not shown): no observed toxicity
- myopic progression (average refractive error) in the treatment eye (albino guinea pigs; 0.0025 mg/ml eye drop 3 times per day for approximately 6 weeks, OD vs vehicle OS, FIGS. 7A-7B): effective in reducing myopic progression
- IOP measurements (albino guinea pigs; all eyes during the study, within normal limits, data not shown): 15-25 mmHg
- LNL crosslinking in corneas (New Zealand white rabbit [2]): increased

Compound: O=S(=O)([O-])[O-].[Cu+2] [CuSO4, copper (II) sulfate]
- cornea epithelial layer by OCT / gross toxicity to the corneas (New Zealand white rabbit [3]): no gross toxicity
- slit-lamp examination (New Zealand white rabbit [3]): no inflammation or opacification
- central cornea flattening by OCT (New Zealand white rabbit [3]; right eyes n=3 vs BSS left eyes, FIGS. 6A-6F): cornea flattening in all 3 treatment eyes
- corneal stiffness (human cadaver corneas; [4]): marked increase
- radial strain (human cadaver corneas; [4]): decrease
- average peak radial strain induced by ocular pulse, treated vs untreated corneas (human cadaver corneas; at 20 mmHg): about 1.5 times lower
- increase in corneal strength (human cadaver corneas; from peak radial strain at 20 mmHg, treated vs untreated): ~50%
- diopter measurements (mean K and at 3 mm), change vs control groups [1]: greater decrease
